Results published in publication PMC11912471 (Journal of Medicinal Chemistry, 2025).
Values joined by “and” are separate entries in the source; they are usually repeats but may differ in a detail not shown here. Equal values may be shown once. Where a name gives a salt, the structure may show the parent alone.

What was measured:
[1] = Sulforhodamine B (SRB) cytotoxicity assay, neonatal fibroblasts; format: cell-based, human; conditions: human, normal primary neonatal fibroblast cells; 72 hrs @500 µM; supplement csv
Method: (§1) Our strategy to identify novel ODC inhibitors was to first screen new analogs for ODC inhibition at 50 μM using our in vitro enzyme activity assay and purified human ODC (Table 1). Those showing significant inhibition were then titrated to provide an ODC IC50 followed by cell-based screening against both cancer (Kelly neuroblastoma) and noncancerous (neonatal fibroblasts) cell lines. For the cancer cell line, higher cytotoxicity was desired and for the noncancerous cell line counter screen, lower cytotoxicity was desired.
(§2) Normal primary human neonatal fibroblast cells (ATCC) were maintained in DMEM medium (Gibco) supplemented with 10% heat-inactivated fetal bovine serum (Hyclone), penicillin (100 IU/mL), and streptomycin (100 μg/mL), nonessential amino acids (0.1 mM) and sodium pyruvate (1 mM). Kelly neuroblastoma cells (Sigma-Aldrich) were maintained in RPMI medium (Corning) supplemented with 10% heat-inactivated fetal bovine serum (Hyclone), penicillin (100 IU/mL), and streptomycin (100 μg/mL). Cell lines were routinely monitored for mycoplasma contamination using the MycoAlert PLUS Mycoplasma Detection Kit (Lonza).
(§3) The colorimetric sulforhodamine B (SRB) assay was used to measure cytotoxicity following treatment with ODC inhibitors. Briefly, Kelly neuroblastoma cells and normal primary human neonatal fibroblast cells were plated in transparent flat 96-well plates and allowed to attach overnight. Cells were treated with control or 500 μM ODC inhibitor for 72 h. Cells were then fixed with 10% TCA at 4 °C for 1 h, washed with deionized water, and dried at room temperature. Cells were stained with 100 μL of 0.4% SRB in 1% acetic acid for 20 min at room temperature, rinsed five times with 1% acetic acid and allowed to dry at room temperature. One hundred μL of 10 mM Tris–HCl pH 7.0 was added to each well, shaken for 10 min at room temperature and absorbance was read at 540 nm. Absorbance values were normalized relative to control readings and converted to percentage by multiplying by one hundred. The percent cytotoxicity was then determined by subtracting the relative percentage of the ODC inhibitor treated readings from the control which is 100%.

[2] = tested on: normal primary human neonatal fibroblast cells; assay: as above; format: cell-based; conditions: 500 μM; for cytotoxic activity against neonatal fibroblasts (in words): 72 h; for Cell cytotoxicity (72 hr @ 500 μM) Neonatal Fibroblasts: percent cytotoxicity
Method: as §1, §2, §3

[3] = tested on: Kelly neuroblastoma cells; assay: Sulforhodamine B (SRB) cytotoxicity assay, Kelly neuroblastoma cells; format: cell-based; conditions: for activity against Kelly neuroblastoma cells (in words): 72 h; for activity against Kelly neuroblastoma cells (in words) / Cell cytotoxicity (72 hr @ 500 μM) Kelly Neuroblastoma: 500 μM; for Cell cytotoxicity (72 hr @ 500 μM) Kelly Neuroblastoma: percent cytotoxicity; for cytotoxicity at 500 µM: Kelly, 72 hrs @500 µM, supplement csv, read-out: Kelly Neuroblasoma Cells (72 hrs @500 µM) %cytotoxicity
Method: as §1, §2, §3

[4] = molecular target: T1, purified human ODC enzyme (Homo sapiens, UniProt P11926); assay: In vitro ODC enzyme activity assay; format: biochemical; conditions: for inhibition at 50 µM: read-out: ODC biochemical inhibition % (50 μM); for IC50: read-out: ODC biochemical inhibition IC50; for lower activity relative to racemic 7: ratio of ODC IC50s
T1 construct: His6 (C); made in house; host or cells: E. coli BL21(DE3)
T1 sequence (P11926 1-461): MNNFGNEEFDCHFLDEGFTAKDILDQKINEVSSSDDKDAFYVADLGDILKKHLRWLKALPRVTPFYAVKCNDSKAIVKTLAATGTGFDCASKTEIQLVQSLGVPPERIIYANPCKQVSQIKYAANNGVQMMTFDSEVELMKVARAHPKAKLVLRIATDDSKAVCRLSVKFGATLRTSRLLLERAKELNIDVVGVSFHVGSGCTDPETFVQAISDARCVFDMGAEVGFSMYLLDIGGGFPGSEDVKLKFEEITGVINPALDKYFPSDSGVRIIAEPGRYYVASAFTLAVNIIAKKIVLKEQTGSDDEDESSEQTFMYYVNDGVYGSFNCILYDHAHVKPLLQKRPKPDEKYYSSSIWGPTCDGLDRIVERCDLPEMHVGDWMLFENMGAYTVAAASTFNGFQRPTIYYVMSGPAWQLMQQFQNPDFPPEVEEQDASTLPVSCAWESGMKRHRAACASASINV
Method: as §1
In vitro ODC activity was measured using 100 ng of purified human ODC enzyme, as we previously described.[53],[99] ODC was incubated with increasing concentrations of inhibitors for 30 min at room temperature in a buffer containing 25 mM Tris and 0.1 mM EDTA. […] In the cell-based ODC activity assay, Kelly neuroblastoma cells that were treated with 500 μM inhibitors were harvested in a buffer containing 25 mM Tris HCl, 0.1 mM EDTA, and 2.5 mM DTT. […] For both the in vitro and cell-based assay, the microcentrifuge tubes were then placed into scintillation vials containing a piece of filter paper saturated with 200 μL of 0.1 M NaOH to capture the release of radiolabeled carbon dioxide. The samples were incubated in a 37 °C incubator while shaking for 30 min (in vitro) or 2 h (cell-based). The enzymatic reaction was stopped by adding 250 μL of 5 M sulfuric acid to each sample and incubating at 37 °C while shaking for 30 min. The microcentrifuge tubes were removed from the scintillation vials, and 5 mL of scintillation fluid was added. Disintegrations per minute (DPM) of each sample was measured using a TriCarb liquid scintillation counter (PerkinElmer). The specific ODC activity is expressed as nmol CO2/min/mg protein (in vitro) or pmol CO2/min/mg protein (cell-based). The individual ODC inhibitor IC50 values were determined using Graphpad Prism 8.

[5] = cited from earlier work
[6] = tested on: ODC; conditions: even at high (>500 μM) concentrations; no reference given; cited from earlier work

| SMILES | cytotoxicity at 72 h, 500 µM [1] [%] | cytotoxic activity against neonatal fibroblasts (in words) [2] | Cell cytotoxicity (72 hr @ 500 μM) Neonatal Fibroblasts [2] [%] | activity against Kelly neuroblastoma cells (in words) [3] | Cell cytotoxicity (72 hr @ 500 μM) Kelly Neuroblastoma [3] [%] | LE ([4]; ligand efficiency) | inhibition at 50 µM [4] [%] | IC50 [4] | LE ([4]; supplement csv) | relative activity of S-enantiomer over R-enantiomer ([4]; 10-S-PLP vs 10-R-PLP, ODC IC50) [fold] | ODC inhibitory activity (in words) [4] | cytotoxicity at 500 µM [3] [%] | lower activity relative to racemic 7 [4] [x] | pKa of amino group ([5]; ornithine α-amino group, putrescine nitrogen) | pKa printed in Figure 1 ([5]; ornithine α-amino, putrescine) | inhibition of ODC (in words) [6] |
| --- | --- | --- | --- | --- | --- | --- | --- | --- | --- | --- | --- | --- | --- | --- | --- | --- |
| Cc1ncc(COP(=O)(O)O)c(/C=N/OC[C@@H]2CCNC2)c1O [10-R-PLP] | 36 | generally more toxic | 36±17 | disappointing neuroblastoma cellular activities | 52±6 | 0.41 | 96 | 160 nM | 0,41 |  |  |  |  |  |  |  |
| Cc1ncc(COP(=O)(O)O)c(/C=N/OC[C@H]2CCNC2)c1O [10-S-PLP, ({5-hydroxy-6-methyl-4-[(E)-({[(3S)-pyrrolidin-3-yl]methoxy}imino)methyl]pyridin-3-yl}methoxy)phosphonic acid] | 40 | generally more toxic | 40±61 | disappointing neuroblastoma cellular activities | 11±4 | 0.47 | 93 | 30 nM | 0,47 | 8 |  |  |  |  |  |  |
| Cc1ncc(COP(=O)(O)O)c(/C=N/OCC2(F)CCNC2)c1O (centres unmarked) [11-PLP, ({4-[(E)-{[(3-fluoropyrrolidin-3-yl)methoxy]imino}methyl]-5-hydroxy-6-methylpyridin-3-yl}methoxy)phosphonic acid] | 57 | generally more toxic | 57±20 | disappointing neuroblastoma cellular activities | 9±13 | 0.41 | 92 | 90 nM | 0,41 |  |  |  |  |  |  |  |
| Cc1ncc(COP(=O)(O)O)c(/C=N/OCCCN)c1O [APA-PLP, ({4-[(E)-[(3-Aminopropoxy)imino]methyl]-5-hydroxy-6-methylpyridin-3-yl}methoxy)phosphonic Acid] | 12 | generally more toxic | 12±19 | disappointing neuroblastoma cellular activities | 24±9 | 0.45 | 99 | 150 nM | 0,45 |  |  |  |  |  |  |  |
| NOCCC1CCCCN1 (centres unmarked) [Compound 6] |  |  |  |  |  |  | 3 |  |  |  | no ODC activity |  |  |  |  |  |
| NOCC1CCCNC1 (centres unmarked) [Compound 7, 3-[(Aminooxy)methyl]piperidine Dihydrochloride] | 3 | reduced cytotoxic activity | 3±6 |  | 54±9 |  | 99 | ~180 nM and 180 nM |  |  |  | 54 |  |  |  |  |
| NOC[C@@H]1CCCNC1 [Compound 7-R] | 0 | reduced cytotoxic activity | 0±14 |  | 49±5 |  | 99 | 770 nM |  |  |  | 49 | ~4 |  |  |  |
| NOC[C@H]1CCCNC1 [Compound 7-S] | 0 | reduced cytotoxic activity | 0±15 |  | 65±6 |  | 99 | 700 nM |  |  |  | 65 | ~4 |  |  |  |
| NOCC1CNCCO1 (centres unmarked) [Compound 8] | 0 | reduced cytotoxic activity | 0±11 |  | 37±11 |  | 95 | 780 nM |  |  |  | 37 |  |  |  |  |
| NOC1CCNCC1 [Compound 9] |  |  |  |  |  |  | 0 |  |  |  | no inhibitory activity |  |  |  |  |  |
| NOC[C@@H]1CCNC1 [Compound 10-R] | 16 | reduced cytotoxic activity | 16±13 |  | 73±12 |  | 99 | 210 nM |  |  |  | 73 |  |  |  |  |
| NOC[C@H]1CCNC1 [Compound 10-S] | 9 | reduced cytotoxic activity | 9±8 |  | 52±18 |  | 99 | 100 nM |  |  |  | 52 |  |  |  |  |
| NOCC1CCNC1 (centres unmarked) [Compound 10] | 14 | reduced cytotoxic activity | 14±10 |  | 66±8 |  | 99 | 360 nM |  |  |  | 66 |  |  |  |  |
| NCCCCN [putrescine] |  |  |  |  |  |  |  |  |  |  |  |  |  | ~10.5 | ~ 10 | not an inhibitor |
